In patent US11433069B2, “Methods of use and pharmaceutical combinations comprising histone deacetylase inhibitors and JAK1/2 inhibitors” (University of Modena and Reggio Emilia, priority 2017, dated 2022):

Experiments:
[1] = system: 12 hematological cancer cell lines; experiment: MTT cell viability, single agents; format: cell-based; conditions: panel of 12 lymphoid malignant cell lines, 24-48 hours, range over cell lines
Procedure: Momelotinib induces dose and time dependent manner growth inhibition in a panel of twelve lymphoid malignant cell lines. Multiple myeloma cells (U266, RPM18266), B-cell lymphoma cells (RL, WSU-NHL, Karpas-422), chronic lymphocytic leukemia cells (MEC-1), mantle cell lymphoma cells (Granta-519, Jeko-1), cutaneous T cell lymphoma cells (Hut-78), anaplastic large cell lymphoma cells (Karpas-299), and Hodgkin lymphoma cells (L-1236, L-540) were treated with a serial dosage of momelotinib (1-10 μM) for 24-48 hours.
Momelotinib and Compound A alone and in combination were tested in 12 hematological cancer cell lines: B-cell lymphomas (WSU-NHL, RL, Karpas-422), mantle cell lymphoma (Granta-519, Jeko-1), cutaneous T cell lymphoma (Hut-78), anaplastic large cell lymphoma (Karpas-299), Hodgkin lymphoma (L-1236, L-540), multiple myeloma (U266, RPM18266) and chronic lymphocytic leukemia (MEC-1). With the exception of GRANTA-519, hematological cancer cell lines were cultured in RPMI-1640 supplemented with 10% fetal bovine serum (FBS), 2 mM glutamine, and 100 U/mL penicillin and streptomycin. For Granta-519 cells, DMEM was used in place of RPMI-1640.
Cell viability was evaluated by MTT colorimetric assay following the manufacturer's instructions. […]

α-tubulin = experiment: Western blot of acetylation of α-tubulin; format: cell-based; conditions: lymphoma cells; extent not further modified by momelotinib
Procedure: Lymphoma cell lines treated with 1 μM of momelotinib and 4 μM of citarinostat alone and in combination. […] Whole-cell lysates were subjected to western blotting using the indicated Abs. Tubulin was used to normalize protein loading. […] Whole-cell lysates were subjected to western blotting using the indicated Abs. Tubulin was used to normalize protein loading.
The combination treatment with momelotinib and Compound A leads JAK2/STAT3 pathway inactivation.

| SMILES | IC50 [1] [µM] | acetylation of α-tubulin (α-tubulin) |
| --- | --- | --- |
| O=C(CCCCCCNC(=O)c1cnc(N(c2ccccc2)c2ccccc2Cl)nc1)NO [Compound A, 2-((2-chlorophenyl)(phenyl)amino)-N-(7-(hydroxyamino)-7-oxoheptyl)pyrimidine-5-carboxamide] | 1.51 to 60 | induced the acetylation of α-tubulin |
| N#CCNC(=O)c1ccc(-c2ccnc(Nc3ccc(N4CCOCC4)cc3)n2)cc1 [Momelotinib, momelotinib, reference compound] | 1.8 to 9.6 |  |
